Measurements published in patent publication US11518973B2, “Device and method for automated antibiotic susceptibility testing of gram-negative bacteria” (Yellow Sea Fisheries Research Institute Chinese Academy Of …, priority 2018, dated 2022).
Values after ≈ are worked out from the molar mass of the structure shown.

Tests used:
[1] = test system: Dysentery Bacillus; experiment: AST assay of levofloxacin by contactless conductivity (ΔC) monitoring of bacterial growth; assay type: cell-based, Dysentery Bacillus (Enterobacteriaceae strain)
Experimental: f. Judging the bacterial cells proliferation result based on the ΔCs at the final point. The ΔC is equal to or larger than 10.0 μS/cm, indicating a proliferation; and ΔC is equal to or lower than 1.0 μS/cm, indicating a completely inhibition. The MIC is defined as the lowest concentration of antibiotic resulting in complete inhibition of growth.
Step 1: According to FIG. 1, an automated device with eight test channels is set up. An HtPot50 dry incubator, which is produced by ABSON Scientific Instruments Co. (Hefei, China), is used as a temperature control unit. The used 0.22 μm disposable syringe filter is produced by Zhejiang Aijiren INC (Quzhou, China). The actuator electrode A, pick-up electrode L and pick-up electrode S are all copper cylinders in external diameter of 4.00 mm with 0.95 mm wall thickness. Their lengths are 16 mm, 16 mm and 10 mm, respectively. In every test channel the three electrodes are coaxially fixed with fixing plate. The distance between the pick-up electrode L and pick-up electrode S is 5 mm; and the distance between the pick-up electrode S and the actuator electrode A is 10 mm. All of the electrodes of the eight test channels are linked to an ER815 capacitively coupled contactless conductivity detector (eDAQ Ltd, Australia). The capacitively coupled contactless conductivity detector is controlled with TERA TERM software installed in E470c laptop computer (Legend Holdings Corporation, China).
Step 2: The temperature in the constant temperature chamber (6) is set to be 36° C. with a nonidentity ≤0.5° C. by clicking the button of temperature control.
Step 3: Involved hardware, containers, tools, consumables and special liquid medium for Enterobacteriaceae are sterilized with high temperature steam (121° C.), following by cooling down to room temperature in sterile vessels. In the special liquid medium the concentrations of beef powder, proteose peptone, lactose, No. 3 bile salt, sodium citrate, sodium thiosulfate and ferric citrate are 5.0, 5.0, 10.0, 8.5, 8.5, 8.5 and 1.0 g/L, respectively. […]

[2] = test system: Helicobacter pylori; experiment: Synergetic effect of levofloxacin and clarithromycin by contactless conductivity (ΔC) monitoring of bacterial growth; assay type: cell-based; conditions: indicates growth
Experimental: Step 3: Involved hardware, containers, tools, consumables and special liquid medium for Helicobacter pylori are sterilized with high temperature steam (121° C.), following by cooling down to room temperature in sterile vessels. The special liquid medium is purchased from Qingdao Hope Bio-Technology Co., Ltd (Qingdao, China).
Step 4: Levofloxacin solutions at concentrations of 0.2, 0.4, 0.6 and 0.8 g/l are prepared with ultrapure sterile water. Clarithromycin solutions at concentrations of 0.2, 0.4, 0.6 and 0.8 g/l are prepared with ethyl alcohol.
Step 5: Eight milliliter sterilized special liquid medium for Helicobacter pylori is transferred into a 10 ml centrifuge tube with a pipette.
Step 6: Twelve well-definite bacterial colonies are transferred from inoculating dish, on which Helicobacter pylori is cultured for 18-20 h, into the 10 ml centrifuge tube to prepare bacterial suspension.
Step 7: One-end-closed disposable PVC tubes in length of 12 cm are used as test tubes (5). […]

SMILES	MIC ([1]; Bacillus, lowest concentration with complete inhibition of growth (ΔC not more than 1.0 μS/cm), 36° C., 21600 s) [µg/mL]	ΔC at the end of incubation ([1]; levofloxacin 0.25, 0.50 and 1.00 mg/l (tubes No. 1-3), indicates growth) [μS/cm]	ΔC at the end of incubation ([1]; levofloxacin 2.00, 3.00, 4.00, 5.00 and 6.00 mg/l (tubes No. 4-8), growth completely inhibited)	ΔC at the end of incubation ([2]; levofloxacin alone 0.10, 0.20, 0.30 and 0.40 mg/l (tubes No. 1-4)) [μS/cm]	ΔC at the end of incubation ([2]; clarithromycin alone 0.10, 0.20, 0.30 and 0.40 mg/l (tubes No. 1-4, Step 12)) [μS/cm]
C[C@H]1COc2c(N3CCN(C)CC3)c(F)cc3c(=O)c(C(=O)O)cn1c23 [levofloxacin]	2 (≈ 5.53 µM)	≥ 18.0	not more than 1.0 μS/cm	≥ 22.0	
CC[C@H]1OC(=O)[C@H](C)[C@@H](O[C@H]2C[C@@](C)(OC)[C@@H](O)[C@H](C)O2)[C@H](C)[C@@H](O[C@@H]2O[C@H](C)C[C@H](N(C)C)[C@H]2O)[C@](C)(OC)C[C@@H](C)C(=O)[C@H](C)[C@@H](O)[C@]1(C)O [clarithromycin]					≥ 14.0
